Data reported in patent US20240150301A1, “METHODS OF MODULATING ANDROGEN RECEPTOR CONDENSATES” (ETERN BIOPHARMA (SHANGHAI) CO., LTD., priority 2021, published 2024).

Tests used:
Assay type in all cases: cell-based
AR V7 = biological target: T1, AR V7 (Homo sapiens, UniProt P10275); assay: ARE-luciferase reporter assay in 22Rv1 cells (endogenous AR-V7); design: 22Rv1(Cobioer) prostate cancer cell line, which expresses endogenous AR-V7; host or cells: 22Rv1; settings: 22Rv1, hormone-starved, 24 h; read-out: 22Rv1 ARE-luc IC50
T1 sequence (P10275 1-644 isoform P10275-3): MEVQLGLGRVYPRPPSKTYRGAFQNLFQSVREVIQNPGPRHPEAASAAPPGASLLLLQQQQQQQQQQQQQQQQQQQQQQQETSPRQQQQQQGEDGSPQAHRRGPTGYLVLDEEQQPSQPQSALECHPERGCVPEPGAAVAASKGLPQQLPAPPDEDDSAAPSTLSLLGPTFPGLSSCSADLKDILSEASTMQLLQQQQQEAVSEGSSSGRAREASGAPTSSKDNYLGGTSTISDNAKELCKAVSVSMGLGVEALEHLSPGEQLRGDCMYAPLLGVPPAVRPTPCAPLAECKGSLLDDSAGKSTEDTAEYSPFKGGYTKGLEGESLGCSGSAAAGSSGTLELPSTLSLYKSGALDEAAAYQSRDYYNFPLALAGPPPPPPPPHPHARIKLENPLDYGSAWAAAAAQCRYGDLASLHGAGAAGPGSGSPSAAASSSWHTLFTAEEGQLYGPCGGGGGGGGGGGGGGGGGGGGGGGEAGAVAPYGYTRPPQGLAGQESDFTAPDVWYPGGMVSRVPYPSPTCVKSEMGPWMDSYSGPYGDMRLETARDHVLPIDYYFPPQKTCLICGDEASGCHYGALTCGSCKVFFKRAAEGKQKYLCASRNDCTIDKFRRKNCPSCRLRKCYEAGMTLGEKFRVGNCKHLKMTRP
Method: The ARE-luciferase reporter plasmid contains functional AREs (androgen response elements) to which AR binds in response to androgen to induce luciferase activity. LNCaP (Cobioer) cells were transiently transfected with the ARE-luciferase reporter in charcoal stripped FBS/phenol red-free RPMI medium prior to treatment for 24 hours. Then DMSO or test compounds with serial diluted concentrations were added one hour prior to the addition of DHT(1 nM). After 24 h of incubation with DHT, cells were lysed and luciferase activity was assayed using the ONE-Glo™ Luciferase Assay System (Promega) and measured using EnVision Multimode Plate Reader, according to manufacturer's instructions. Values were normalized to cell viability determined by CellTiter-Glo® Luminescent Cell Viability Assay Kit (Promega). […] GraphPad Prism graphing software was used to calculate IC50 values.
To evaluate the transcriptional activity of AR-V7, HEK293T(Cobioer) cells were transiently cotransfected with an expression vector for AR-V7 and the ARE-luciferase reporter in hormone-starved conditions. For 22Rv1(Cobioer) prostate cancer cell line, which expresses endogenous AR-V7, ARE-luciferase reporter was transiently transfected in hormone-starved conditions. 24 h after transfection, DMSO or test compounds with serial diluted concentrations were added for additional 24 h incubation. Reporter activity was detected and normalized by cell viability as described above. Treatments were normalized to DMSO control activity, and IC50 values were further determined via GraphPad Prism graphing software.

DU145 cells = assay: Cell proliferation assay (CellTiter-Glo), DU145; settings: Homo sapiens, DU-145, 96 h; 4 days; read-out: DU145 IC50 AR-negative (cell proliferation)
Method: (§1) To evaluate the effect of exemplary compounds on proliferation of AR/AR-V7-dependent prostate cancer cells, cell viability assay was performed in LNCaP (AR-positive), 22Rv1 (AR-positive; AR-V7 positive), VCaP (AR-positive; AR-V7 positive), and DU145 (AR-negative) cells, respectively.
(§2) LNCaP cells were seeded in charcoal stripped FBS/phenol red-free RPMI medium in 96-well plates for 24 h before pretreating for 1 h with test compounds prior to addition of 0.2 nM DHT for 4 days. 22Rv1 or VCaP cells were cultured in charcoal stripped FBS/phenol red-free RPMI medium for 24 h before addition of test compounds for 4 days. DU145 cells were seeded in complete medium for 24 h before addition of test compounds for 4 days. Cell proliferation was measured with CellTiter-Glo® Luminescent Cell Viability Assay (Promega). In LNCaP cells, DHT-dependent cell growth is calculated by measuring the difference between vehicle control (DMSO) cells treated with or without 0.2 nM DHT. The IC50 values were determined using the four parameter fit via GraphPad Prism graphing software.

22Rv1 cells = assay: Cell proliferation assay (CellTiter-Glo), 22Rv1; settings: Homo sapiens, 22Rv1, 96 h; 4 days; read-out: 22Rv1 IC50 AR-positive; AR-V7 positive (cell proliferation)
Method: as §1, §2

IC50 (AR V7) [µM]	IC50 (DU145 cells) [µM]	IC50 (22Rv1 cells) [µM]	Structure (SMILES)
8.6	> 20	3.24	CC(C)(c1ccc(OCc2ccnc(N=S3(=O)CCNCC3)n2)cc1)c1cc(Cl)c(OCCCl)c(C#N)c1 [Compound 6, 3-chloro-2-(2-chloroethoxy)-5-(2-(4-((2-((1-oxido-1λ^6-thiomorpholin-1-ylidene)amino)pyrimidin-4-yl)methoxy)phenyl)propan-2-yl)benzonitrile]
> 20	17.2	> 20	CC(C)(c1ccc(OCc2ccnc(NS(C)(=O)=O)n2)cc1)c1cc(Cl)c(OCCCl)c(C#N)c1 [Compound AA, N-(4-((4-(2-(3-chloro-4-(2-chloroethoxy)-5-cyanophenyl)propan-2-yl)phenoxy)methyl)pyrimidin-2-yl) methane sulfonamide, reference compound]
